Test results from patent US20060148878A1, “Pseudopolymorphic forms of carvedilol” (priority 2001, published 2006).

What was measured:
[1] = active substance resorption / bioavailability of compositions containing carvedilol form IV; type: in vivo; conditions: compositions with selected adjuvants, compared with formulations which contain carvedilol forms I or II
[2] = dissolution in molten polyethylene glycol 6,000; type: physicochemical; conditions: polyethylene glycol 6,000 melted at about 70° C.; carvedilol form I, II or IV dissolved
Method: Thus, carvedilol form I, II or IV can be dissolved in polyethylene glycol 6,000 which is melted at about 70° C. […] Further, the compositions in accordance with the invention can contain highly dispersed silicon dioxide as an anti-caking agent.

[3] = investigations into the gastrointestinal resorption of carvedilol; type: in vivo; conditions: compared with resorption in the stomach
[4] = resorption after peroral administration of rapid release carvedilol formulations; type: in vivo; conditions: e.g. the commercial formulation
Description: In the case of the peroral administration of rapid release carvedilol formulations, e.g. the commercial formulation, resorption quotas of up to 80% are achieved, with a considerable part of the resorbed carvedilol being very rapidly metabolized.

[5] = pH 1

Structure (SMILES)	bioavailability [1]	concentration of carvedilol obtained in polyethylene glycol 6,000 [2]	resorption in the ileum and colon [3]	resorption quota [4]	solubility in aqueous media [5]	solubility in the strongly acidic region [5]
COc1ccccc1OCCNCC(O)COc1cccc2[nH]c3ccccc3c12 (racemic) [carvedilol form IV, (±)1-(4-carbazolyloxy)-3-[2-(2-methoxyphenoxy)ethylamino]-2-propanole]	improved bioavailability					
COc1ccccc1OCCNCC(O)COc1cccc2[nH]c3ccccc3c12 (racemic) [carvedilol, (±)1-(4-carbazolyloxy)-3-[2-(2-methoxyphenoxy)ethylamino]-2-propanole]		up to 500 mg/ml	only a fraction of the resorption in the stomach	up to 80%	1 mg and 100	very low solubility
